According to patent publication US20050009052A1 (priority 2003, published 2005):

Legend:
pde2Δ/pde2Δ strain [1] = test: Growth of individually cultured yeast strain with inhibitor (O.D.600); format: cell-based, Saccharomyces cerevisiae; details: pde2Δ/pde2Δ grown individually, YPD, 30° C.; staurosporine 1 μM, latrunculin B 2 μg/ml
pdr5Δ/pdr5Δ strain [2] = format: cell-based, Saccharomyces cerevisiae; details: pdr5Δ/pdr5Δ grown individually, YPD, 30° C.; staurosporine 1 μM, latrunculin B 2 μg/ml
ACT1/act1Δ strain = format: cell-based, Saccharomyces cerevisiae; details: ACT1/act1Δ grown individually, YPD, 30° C.; staurosporine 1 μM, latrunculin B 2 μg/ml
pac10Δ/pac10Δ strain [3] = format: cell-based, Saccharomyces cerevisiae; details: pac10Δ/pac10Δ grown individually, YPD, 30° C.; staurosporine 1 μM, caffeine 8 mM, latrunculin B 2 μg/ml
gim4Δ/gim4Δ strain [4] = format: cell-based, Saccharomyces cerevisiae; details: gim4Δ/gim4Δ grown individually, YPD, 30° C.; staurosporine 1 μM, latrunculin B 2 μg/ml
gim4Δ/gim4Δ strain [5] = test: Differential Tag Length Analysis (DTLA) of 11-strain mixed yeast culture with inhibitor; format: cell-based, Saccharomyces cerevisiae
Description: (§1) Strains, media and inhibitors.
(§2) Tag amplification and capillary electrophoresis. Oligonucleotides Fluor-1 (6-Fam-[…]) and Pho-1 (Phosphate-[…]) were used for the amplification of tag DNAs. PCR reactions were performed in 50 μl reaction volume containing the 2 primers at a final concentration of 1 μM each and 2.5 units of Stoffel fragment AmpliTaq DNA polymerase (Applied Biosystems, Foster City, Calif.). After an initial 2 min denaturing step at 94° C., the reactions underwent 30 amplification cycles (94° C., 30 sec; 60° C., 30 sec; 72° C., 30 sec with a 6 sec increase in extension time per cycle) followed by a post-amplification extension step (72° C., 10 min). As a template for the PCR reactions, 100 ng of plasmid DNA, 700 ng of genomic DNA (extracted from yeast strains using MasterPure Yeast DNA purification kit; Epicentre, Madison, Wis.), or an equivalent to 0.5 μl of saturated culture of yeast protoplasts (prepared by using lyticase) (see, e.g., Chen et al., Biotechniques 19:744-746 (1995)) was used. The PCR products were incubated with λ-exonuclease for 1 h at 37° C. and then purified using MinElute PCR purification kit (QIAGEN Inc., Valencia, Calif.). After 1 h digestion with EcoRI, the PCR products were again purified with the same kit and adjusted to 70% formamide and 1 mM EDTA and analyzed by capillary electrophoresis on ABI Prism 3700 DNA analyzer (Applied Biosystems, Foster City, Calif.) using 3700 POP-5 polymer.
(§3) Data analysis. To access the raw fluorescence data collected by ABI Prism 3700 DNA analyzer, a Visual Basic program was used that extracted the electropherogram values and converted them into a text file format. Peak quantitation was then performed using Caesar Workstation 5.0 (SciBridge Software, Los Angeles, Calif.). In the majority of cases, the relative representation of each tag in the PCR product was calculated by dividing the area under the corresponding tag peak by the sum of all tag peak areas. For the measurement of different input amounts of tag 42, the average peak area of the other 10 tags was first calculated. The area value of tag 42 was then divided by this averaged value to give normalized tag 42 area.

bro1Δ/bro1Δ strain [6] = test: as above; format: cell-based, Saccharomyces cerevisiae; details: 20 hours; for increase of strain representation in the mixture: staurosporine 1 μM, latrunculin B 2 μg/ml
Description: as §1, §2, §3

act1Δ/ACT1 strain = test: as above; format: cell-based, Saccharomyces cerevisiae; details: 20 hours
Description: as §1, §2, §3

pde2Δ/pde2Δ strain [7] = test: as above; format: cell-based, Saccharomyces cerevisiae; details: 20 hours
Description: as §1, §2, §3

pdr5Δ/pdr5Δ strain [8] = test: as above; format: cell-based, Saccharomyces cerevisiae; details: pdr5Δ/pdr5Δ in mixed culture, 20 hours; latrunculin B 2 μg/ml
Description: as §1, §2, §3

pac10Δ/pac10Δ strain [9] = format: cell-based, Saccharomyces cerevisiae; details: pac10Δ/pac10Δ in mixed culture, 20 hours
rlm1Δ/rlm1Δ strain [10] = test: Growth of individually cultured yeast strain with inhibitor (O.D.600); format: cell-based, Saccharomyces cerevisiae; details: rlm1Δ/rlm1Δ grown individually, YPD, 30° C.; staurosporine 1 μM, caffeine 8 mM, tunicamycin 0.4 μg/ml
bro1Δ/bro1Δ strain [11] = details: bro1Δ/bro1Δ grown individually, YPD, 30° C.; staurosporine 1 μM, caffeine 8 mM
rlm1Δ/rlm1Δ strain [12] = test: Differential Tag Length Analysis (DTLA) of 11-strain mixed yeast culture with inhibitor; format: cell-based, Saccharomyces cerevisiae; details: 20 hours
Description: as §1, §2, §3

pkc1Δ/PKC1 strain = test: as above; format: cell-based, Saccharomyces cerevisiae; details: 20 hours, caffeine 8 mM
Description: as §1, §2, §3

alg7Δ/ALG7 strain [13] = format: cell-based, Saccharomyces cerevisiae; details: alg7Δ/ALG7 grown individually, YPD, 30° C.; staurosporine 1 μM, tunicamycin 0.4 μg/ml
alg7Δ/ALG7 strain [14] = test: Differential Tag Length Analysis (DTLA) of 11-strain mixed yeast culture with inhibitor; format: cell-based, Saccharomyces cerevisiae; details: alg7Δ/ALG7 in mixed culture, 20 hours; tunicamycin 0.4 μg/ml
Description: as §1, §2, §3

C/C1=C/C(=O)O[C@@H]2C[C@@H](CC[C@H](C)/C=C\CC1)O[C@@](O)([C@@H]1CSC(=O)N1)C2 [latrunculin B]
sensitivity of growth to inhibitor (pde2Δ/pde2Δ strain [1]): inhibited the growth
sensitivity of growth to inhibitor (pdr5Δ/pdr5Δ strain [2]): inhibited the growth
sensitivity of growth to inhibitor (ACT1/act1Δ strain): inhibited the growth
sensitivity of growth to inhibitor (pac10Δ/pac10Δ strain [3]): inhibited the growth
sensitivity of growth to inhibitor (gim4Δ/gim4Δ strain [4]): inhibited the growth
strain representation compared with the non-treated culture (reduced to) (gim4Δ/gim4Δ strain [5]; gim4Δ/gim4Δ in mixed culture, 20 hours, latrunculin B 2 μg/ml): less than 50%
increase of strain representation in the mixture (bro1Δ/bro1Δ strain [6]): 123%
strain representation compared with the non-treated culture (reduced to) (act1Δ/ACT1 strain; act1Δ/ACT1 in mixed culture, latrunculin B 2 μg/ml): less than 50%
strain representation compared with the non-treated culture (reduced to) (pde2Δ/pde2Δ strain [7]; pde2Δ/pde2Δ in mixed culture, latrunculin B 2 μg/ml): less than 50%
strain representation compared with the non-treated culture (reduced to) (pdr5Δ/pdr5Δ strain [8]): less than 50%
strain representation compared with the non-treated culture (reduced to) (pac10Δ/pac10Δ strain [9]; latrunculin B 2 μg/ml): less than 50%

Cn1c(=O)c2c(ncn2C)n(C)c1=O [caffeine]
sensitivity of growth to inhibitor (rlm1Δ/rlm1Δ strain [10]): sensitive
sensitivity of growth to inhibitor (pac10Δ/pac10Δ strain [3]): sensitive
sensitivity of growth to inhibitor (bro1Δ/bro1Δ strain [11]): sensitive
effect on growth of strain in mixed culture (rlm1Δ/rlm1Δ strain [12]; caffeine 8 mM): decreased growth
effect on growth of strain in mixed culture (gim4Δ/gim4Δ strain [5]; caffeine 8 mM): exhibited sensitivity in the mixture
effect on growth of strain in mixed culture (bro1Δ/bro1Δ strain [6]; caffeine 8 mM): decreased growth
effect on growth of strain in mixed culture (act1Δ/ACT1 strain; caffeine 8 mM): decreased growth
increase of strain representation in the mixture (pkc1Δ/PKC1 strain): 97%
effect on growth of strain in mixed culture (pde2Δ/pde2Δ strain [7]; caffeine 8 mM): decreased growth

tunicamycin
sensitivity of growth to inhibitor (rlm1Δ/rlm1Δ strain [10]): slowed the growth
sensitivity of growth to inhibitor (alg7Δ/ALG7 strain [13]): slowed the growth
decrease/reduction of strain relative to the non-treated culture (rlm1Δ/rlm1Δ strain [12]; rlm1Δ/rlm1Δ in mixed culture, staurosporine 1 μM, tunicamycin 0.4 μg/ml): 59%
reduction of strain relative to the non-treated culture (alg7Δ/ALG7 strain [14]): 83%
increase of strain representation in the mixture (pac10Δ/pac10Δ strain [9]; tunicamycin 0.4 μg/ml): 82%

CN[C@@H]1C[C@H]2O[C@@](C)([C@@H]1OC)n1c3ccccc3c3c4c(c5c6ccccc6n2c5c31)C(=O)NC4 [staurosporine]
increase of strain representation in the mixture (bro1Δ/bro1Δ strain [6]): 340%
increase of strain representation in the mixture (pde2Δ/pde2Δ strain [7]; staurosporine 1 μM): 200%
